Laboratory results reported in patent US12195427B2, “MASP-2 inhibitors and methods of use” (priority 2018, dated 2025).

Molecular target: MASP-2 CCP2-SP (Homo sapiens (Human), UniProt O00187)
Test: MASP-2 co-crystallization, X-ray crystallography and structure analysis (H-bonds, van der Waals contacts);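 for Ligand-pharmacophore element distance, pharmacophore element C2: distance from averaged pharmacophore element to bound ligand; missing value means element absent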;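 for Ligand-pharmacophore element distance, pharmacophore element C3: distance from averaged pharmacophore element to bound ligand; missing value means element absent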;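 for Ligand-pharmacophore element distance, pharmacophore element C4: distance from averaged pharmacophore element to bound ligand; missing value means element absent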;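 for Ligand-pharmacophore element distance, pharmacophore element C5: distance from averaged pharmacophore element to bound ligand; missing value means element absent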
Parameters: van der Waals contact distance, MASP-2 HIS 483 atom CD2 / van der Waals contact distance, MASP-2 HIS 483 atom NE2 / van der Waals contact distance, SER 654 C to compound atom / van der Waals contact distance, SER 654 O to compound atom / van der Waals contact distance, TRP 655 C to compound atom / van der Waals contact distance, MASP-2 GLY 528 atom CA / van der Waals contact distance TRP 655 atom CZ3 / van der Waals contact distance TRP 655 atom N / van der Waals contact distance TRP 655 atom CE3 / van der Waals contact distance GLY 656 atom C / van der Waals contact distance GLY 656 atom CA / van der Waals contact distance GLY 656 atom O / van der Waals contact distance, MASP-2 TYR 607 atom CD1 / van der Waals contact distance, MASP-2 PRO 606 atom O / d(C3,CA1) / d(CA1,N1)2 / d(H4,O1) / d(H4,O2) / d(O1,O2) / d(CA1,O2) / d(CA6,O1) / d(CA6,O2) / d(CA1,C5) / d(O2,H3) / d(N2,C2) / d(CA5,N2) / d(N2,C4) / d(N2,C6) / d(N2,CA3) / d(N2,O3) / d(O4,H2): unit not given beside the values
Settings: for Ligand-pharmacophore element distance, pharmacophore element C2 / Ligand-pharmacophore element distance, pharmacophore element C3 / Ligand-pharmacophore element distance, pharmacophore element C4 / Ligand-pharmacophore element distance, pharmacophore element C5 / Ligand-pharmacophore element distance, pharmacophore element C6 / Ligand-pharmacophore element distance, pharmacophore element C7 / Ligand-pharmacophore element distance, pharmacophore element CA1 / Ligand-pharmacophore element distance, pharmacophore element CA2 / Ligand-pharmacophore element distance, pharmacophore element CA3 / Ligand-pharmacophore element distance, pharmacophore element CA4 / Ligand-pharmacophore element distance, pharmacophore element CA5 / Ligand-pharmacophore element distance, pharmacophore element CA6: Table A4-1
Method in brief: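 Inhibitor complexes were obtained by soaking crystals of E. coli-expressed human MASP-2 CCP2-SP constructs, then flash-cooling in liquid nitrogen. Structures solved by molecular replacement (1Q3X search model) from synchrotron diffraction; where several poses existed, only one was analyzed, and nonbonded contacts listed can include H-bonds.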

[1] = Table A5-1 pharmacophore: distance between elements, S2/S1 region
[2] = Table A5-2 pharmacophore distance, S3/S4 region
[3] = Table A7-1, between pharmacophore elements of the bound compound
[4] = Table A7-2, between pharmacophore elements of the bound compound
[5] = Table A8-6, nearest protein atom in cell to the left

Sequence of MASP-2 CCP2-SP (O00187 445-686): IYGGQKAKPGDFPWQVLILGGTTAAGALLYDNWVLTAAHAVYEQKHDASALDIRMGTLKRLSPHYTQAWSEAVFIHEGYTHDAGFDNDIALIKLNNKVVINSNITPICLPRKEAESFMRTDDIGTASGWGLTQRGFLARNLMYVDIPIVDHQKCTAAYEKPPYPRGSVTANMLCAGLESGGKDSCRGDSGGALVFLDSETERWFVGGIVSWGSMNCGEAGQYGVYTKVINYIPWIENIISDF
Sequence of MASP-2 CCP2-SP (O00187 364-432 partner): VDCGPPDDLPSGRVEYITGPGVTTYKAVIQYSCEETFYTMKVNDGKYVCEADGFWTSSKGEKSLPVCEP

N=C(N)c1ccc(CNC(=O)[C@@H]2CCN2C(=O)[C@H]2Cc3ccccc3CN2)cc1 [compound 1034]
H-bond distance to MASP-2 ASP 627 atom OD1 (Table A1 (H-Bonds), ASP 627 OD1): 2.9
H-bond distance to MASP-2 GLN 665 atom OE1 (Table A1 (H-Bonds), GLN 665 OE1): 3.26
H-bond distance to MASP-2 GLN 665 atom OE1 (second bond) (Table A1 (H-Bonds), GLN 665 OE1, second column): 2.8
H-bond distance to MASP-2 GLY 656 atom N (Table A1 (H-Bonds), GLY 656 N): 2.91
H-bond distance to MASP-2 SER 628 atom O (Table A1 (H-Bonds), SER 628 O): 2.91
H-bond distance to MASP-2 SER 654 atom O (Table A1 (H-Bonds), SER 654 O): 2.99
H-bond distance to MASP-2 SER 657 atom O (Table A1 (H-Bonds), SER 657 O): 2.75
van der Waals contact distance, MASP-2 PRO 606 atom CG (Table A2-4): 3.71
van der Waals contact distance, MASP-2 amino acid atom to compound atom (Table A2-10, ARG 630 NH2, GLY 631, ASP 632, SER 633): 3.11
van der Waals contact distance, SER 654 C to compound atom (Table A2-11): 3.83
van der Waals contact distance, TRP 655 CA to compound atom (Table A2-12): 3.42
van der Waals contact distance TRP 655 atom O (Table A2-13, MASP-2 TRP 655 O): 3.77
van der Waals contact distance SER 657 atom C (Table A2-14, MASP-2 SER 657 C, columns c12-c13 (inferred)): 3.51
Ligand-pharmacophore element distance, pharmacophore element C2: 2.4
Ligand-pharmacophore element distance, pharmacophore element C3: 0
Ligand-pharmacophore element distance, pharmacophore element C4: 0
Ligand-pharmacophore element distance, pharmacophore element C5: 0
Ligand-pharmacophore element distance, pharmacophore element C6: 0
Ligand-pharmacophore element distance, pharmacophore element C7: 0
Ligand-pharmacophore element distance, pharmacophore element CA1: 0.28
Ligand-pharmacophore element distance, pharmacophore element CA2: 0
Ligand-pharmacophore element distance, pharmacophore element CA3: 0
Ligand-pharmacophore element distance, pharmacophore element CA4: 0
Ligand-pharmacophore element distance, pharmacophore element CA5: 0.98
Ligand-pharmacophore element distance, pharmacophore element CA6: 0
Ligand-pharmacophore element distance, pharmacophore element H1 (Table A4-2, element H1): 0
Ligand-pharmacophore element distance, pharmacophore element H2 (Table A4-2, element H2): 0
Ligand-pharmacophore element distance, pharmacophore element H3 (Table A4-2, element H3): 1.08
Ligand-pharmacophore element distance, pharmacophore element H4 (Table A4-2, element H4): 3.56
Ligand-pharmacophore element distance, pharmacophore element N1 (Table A4-2, element N1): 1.87
Ligand-pharmacophore element distance, pharmacophore element N2 (Table A4-2, element N2): 0.86
Ligand-pharmacophore element distance, pharmacophore element O1 (Table A4-2, element O1): 0.39
Ligand-pharmacophore element distance, pharmacophore element O2 (Table A4-2, element O2): 0.49
Ligand-pharmacophore element distance, pharmacophore element O3 (Table A4-2, element O3): 0
Ligand-pharmacophore element distance, pharmacophore element O4 (Table A4-2, element O4): 0
d(CA1,N1) [1]: 3.64
d(CA1,O1) [1]: 4.35
d(CA1,O2) [1]: 4.19
d(H4,O1) [1]: 4.86
d(H4,O2) [1]: 4.31
d(O1,O2) [1]: 3.48
d(CA5,N2) [2]: 3.72
d(N2,C2) [2]: 2.26
d(O2,H3) [2]: 2.74
d(O2,N2) [2]: 3.03
a(CA1, O1, O2) (Table A6-1 pharmacophore angle): 111.64
a(O1, O2, H4) (Table A6-1 pharmacophore angle): 135.95
A(N1, CA1, O1) a) (Table A6-1 pharmacophore angle, all compounds with protonatable center N1 except Methyl-amino-pyridine): 160.69
a(O1, O2, H3) (Table A6-2 pharmacophore angle): 135.88
a(O1, O2, N2) (Table A6-2 pharmacophore angle): 137.69
a(O2, N2, C2) (Table A6-2 pharmacophore angle): 100.68
Pharmacophore torsion angle a(H4, O1, O2, H3) [3]: 93.33
Pharmacophore torsion angle a(H4, O1, O2, N2) [3]: 142.83
Pharmacophore torsion angle a(N1, CA1, O2, H4) [3]: −127.27
Pharmacophore torsion angle a(O1, H4, O2, CA1) [3]: −61.32
Pharmacophore torsion angle a(O1, O2, N2, C2) [3]: 68.39
Pharmacophore torsion angle a(O1, O2, N2, CA5) [4]: 137.68
Pharmacophore protein distance to MET_658 (first MET_658 column) (Table A8-6, 6th residue column, nearest protein atom in cell to the left): 2.86
Pharmacophore protein distance to MET_658 (second MET_658 column) (Table A8-6, 9th residue column, nearest protein atom in cell to the left): 3.46
Pharmacophore protein distance to GLY_528 [5]: 3.79
Pharmacophore protein distance to PHE_529 [5]: 3.09
Pharmacophore protein distance to PRO_608 [5]: 2.97
Pharmacophore protein distance to SER_611 [5]: 3.32
Pharmacophore protein distance to TRP_655 (Table A8-6, pharmacophore elements C6, CA3, O3, H1, nearest protein atom in cell to the left): 3.27

Cc1nc(N)ccc1CNC(=O)[C@H](C)NC(=O)[C@H]1C[C@H](Cc2cccc(Cl)c2)CN1.Cl.Cl [1328_1]
Ligand-pharmacophore element distance, pharmacophore element C2: 0
Ligand-pharmacophore element distance, pharmacophore element C3: 0.4
Ligand-pharmacophore element distance, pharmacophore element C4: 0.76
Ligand-pharmacophore element distance, pharmacophore element C5: 0
Ligand-pharmacophore element distance, pharmacophore element C6: 0
Ligand-pharmacophore element distance, pharmacophore element C7: 0
Ligand-pharmacophore element distance, pharmacophore element CA1: 0.49
Ligand-pharmacophore element distance, pharmacophore element CA2: 0.5
Ligand-pharmacophore element distance, pharmacophore element CA3: 0
Ligand-pharmacophore element distance, pharmacophore element CA4: 0
Ligand-pharmacophore element distance, pharmacophore element CA5: 0
Ligand-pharmacophore element distance, pharmacophore element CA6: 0
d(C3,CA1) [1]: 2.85
d(CA1,N1)2 [1]: 1.37
d(CA1,O1) [1]: 4.24
d(CA1,O2) [1]: 3.54
d(H4,O1) [1]: 4.21
d(H4,O2) [1]: 3.54
d(O1,O2) [1]: 3.13
d(N2,C4) [2]: 8.09
d(N2,C4)4 [2]: 8.09
d(N2,CA2) [2]: 5.88
d(O2,H3) [2]: 4.20
d(O2,N2) [2]: 2.79
a(C3, CA1, O1) (Table A6-1 pharmacophore angle): 150.62
a(CA1, O1, O2) (Table A6-1 pharmacophore angle): 101.20
a(O1, O2, H4) (Table A6-1 pharmacophore angle): 133.34
a(N1, CA1, O1) b) (Table A6-1 pharmacophore angle, Methyl-amino-pyridine compounds): 175.41
a(O1, O2, H3) (Table A6-2 pharmacophore angle): 150.01
a(O1, O2, N2) (Table A6-2 pharmacophore angle): 145.32
a(O2, N2, C4) (Table A6-2 pharmacophore angle): 161.66
a(O2, N2, C4) 2 (Table A6-2 pharmacophore angle): 114.03
a(O2, N2, CA2) (Table A6-2 pharmacophore angle): 155.25
Pharmacophore torsion angle a(C3, CA1, O1, H4) [3]: 30.10
Pharmacophore torsion angle a(H4, O1, O2, H3) [3]: 55.62
Pharmacophore torsion angle a(H4, O1, O2, N2) [3]: 136.65
Pharmacophore torsion angle a(N1, CA1, O1, H4) [3]: 20.31
Pharmacophore torsion angle a(O1, H4, O2, CA1) [3]: −88.07
Pharmacophore torsion angle a(O1, O2, N2, CA2) [4]: 126.19
